Experiments:
[1] = system: RNA Polymerase II Serine 5 phosphorylation in A549 cells overexpressing CDK7-mutant (C312S); assay: Imaging-based cellular RNA PolII Ser5 phosphorylation assay in A549 cells overexpressing CDK7-mutant (C312S); assay type: cell-based, human; details: RNA PolII Ser5 phosphorylation, averaged over all measurements; for IC50: Homo sapiens, A549, A549 cells overexpressing CDK7-mutant (C312S), read-out: CDK7_A549 mutant hCDK7(pIC50) (converted); for CDK7_A549 mutant hCDK7(pIC50): A549 cells overexpressing CDK7-mutant (C312S)
Excerpt: (§1) To evaluate inhibition of CDK7 kinase activity, a 384-well automated imaging assay was used. This assay detects Serine 5 phosphorylation on a unique heptapeptide sequence in the C-terminal domain of Rpb1 subunit of RNA polymerase II, the downstream substrate of CDK7. This heptapeptide sequence is repeated up to 52 times in the CTD of Rpb1.
(§2) A549 adenocarcinoma human alveolar basal epithelial cells (ATCC, CCL-185), rabbit Phospho-Rpb1 CTD (Ser5) antibody (D9N51 (Cell Signaling Technology)), DMEM (Sigma), Fetal Bovine Serum (Biowest), L-glutamine (Sigma), Penicillin/Streptomycin (Life Technologies), Sodium Pyruvate (Sigma), Hepes (Sigma), poly-D-lysine coated μclear 384 black plates (Greiner), formaldehyde (PolySciences), D-PBS (Sigma), Methanol (Sigma), Alexa Fluor 488 goat anti rabbit IgG secondary antibody (Life Technologies), HCS CellMask™ Deep Red stain (Life Technologies), Hoechst 33258 (Invitrogen).
(§3) RNA Polymerase II Serine 5 phosphorylation was detected using a specific rabbit Phospho-Rpb1 CTD (Ser5) antibody. A549 adenocarcinoma human alveolar basal epithelial cells were seeded in 20 μl medium (DMEM supplemented with 1% Fetal Bovine Serum (heat inactivated 30′ 56° C.), 2 mM L-glutamine, 50 U/ml penicillin 50 μg/ml streptomycin, 1 mM sodium pyruvate and 50 mM hepes) at 1000 cells/well and cultured in poly-D-lysine coated μclear 384 black plates for 20 hours at 37° C. and 5% CO2.
(§4) After incubation cells were challenged with compound for 3 hours at 37° C. and 5% CO2. DMSO was used as high control and as low control 10 μM of the following reference compound was used:
(§5) 40 nl of test compounds and controls were spotted in cell plates using Echo Liquid Handler (Echo 550, Labcyte). Incubation was followed by 20 minutes fixation with 20 μl 10% formaldehyde at room temperature. Medium/formaldehyde solution was removed, plates were washed 3 times with 30 μl D-PBS (w/o Ca^2+ and Ma^2+) and permeabilization was done by adding 20 μl ice cold methanol for 20 minutes. Cells were washed again 3 times with 30 μl D-PBS and 20 μl blocking buffer (25 ml fetal bovine serum in 500 ml D-PBS) was added for 1 hour.
(§6) After removing blocking buffer 20 μl 1/1000 primary antibody rabbit Phospho-Rpb1 CTD (Ser5) antibody was added which binds to the phosphorylated Serine5 of the heptapeptide sequences in the CTD of Rpb1. Primary antibody was removed, and plates were washed 3 times with 30 μl D-PBS followed by addition of 20 μl 1/2000 Alexa Fluor 488 goat anti rabbit IgG secondary antibody for final detection of Phospho-Rpb1 CTD (Ser5) together with 1/5000 HCS CellMask™ Deep Red stain for membrane staining and 1/5000 Hoechst 33258 for nucleus staining. Last, plates were washed 2 times with 30 μl D-PBS and wells were filled with 40 μL D-PBS, plates were sealed (Thermowell sealing tape) and stored at 4° C. until reading. Plates were read with Opera Phenix (Perkin Elmer) with 10× air objective. Data were calculated and analyzed in Phaedra.
(§7) IC50 values were calculated using the following formula: […]
(§8) Average value of all HC's and all LC's are used for normalizations.
(§9) A best-fit curve is fitted by a minimum sum of squares method to the plot of % Control vs. compound concentration. From this an IC50 value can be obtained. An estimate of the slope of the plot in terms of the Hill coefficient is also obtained.
In parallel this assay was performed in A549 cells overexpressing CDK7-mutant (C312S) to evaluate the effect of the covalent bond on potency and to screen for potential off-target effects. Mutation of Cysteine to Serine (C312S), a less nucleophilic amino acid, prevents CDK7 inhibitors from covalently binding to CDK7 and from inhibiting CDK7 activity in an irreversible manner. A stably transduced A549 cell pool was generated that overexpresses CDK7 mutant (C312S), but also expresses endogenous CDK7-WT. Covalent binders targeting the cysteine at position 312 will show a shift in potency in A549 cells overexpressing mutant C312S CDK7.

[2] = system: RNA Polymerase II Serine 5 phosphorylation (Rpb1 CTD, downstream substrate of CDK7) in A549 cells; assay: Imaging-based cellular RNA PolII Ser5 phosphorylation assay in A549 cells; assay type: cell-based, human; details: wild-type CDK7, RNA PolII Ser5 phosphorylation, averaged over all measurements; for CDK7_A549 Wild-type CDK7 (pIC50): A549 cells; for IC50: Homo sapiens, A549, A549 cells, read-out: CDK7_A549 Wild-type CDK7 (pIC50) (converted)
Excerpt: as §1, §2, §3, §4, §5, §6, §7, §8, §9

| IC50 [1] [µM] | CDK7_A549 Wild-type CDK7 (pIC50) [2] | CDK7_A549 mutant hCDK7(pIC50) [1] | IC50 [2] [µM] | Structure (SMILES) |
| --- | --- | --- | --- | --- |
| > 10 | 5.68 |  |  | CC#CC(=O)N1CC[C@H](N2CC(c3cc4c(c(C)n3)O[C@H](C)c3c(N5CCOCC5)ccnc3N4)C2)C1 (single isomer, unassigned) [Compound 516] |
|  | 5.03 | <5 |  | CC#CC(=O)N1CC(N2CCC(c3cc4c(c(C)n3)O[C@H](C)c3c(N5CCOCC5)ccnc3N4)CC2)C1 (single isomer, unassigned) [Compound 524] |
|  | <5 | <5 |  | CC#CC(=O)N1CC[C@H](N2CC(c3cc4c(c(C)n3)O[C@H](C)c3c(N5CCOCC5)ccnc3N4)C2)C1 (single isomer, unassigned) [Compound 530] |
|  | <5 | <5 |  | CC#CC(=O)N1CC[C@@H](N2CC(c3cc4c(c(C)n3)O[C@H](C)c3c(N5CCOCC5)ccnc3N4)C2)C1 (single isomer, unassigned) [Compound 531] |
|  | 6.33 | <5 |  | CC#CC(=O)N1CC[C@H](N2CC(c3cc4c(c(C)n3)O[C@@H](C)c3c(N5CCOCC5)ccnc3N4)C2)C1 (single isomer, unassigned) [Compound 533] |
| > 10 |  |  | ~9.55 | CC#CC(=O)N1CC(N2CCC(c3cc4c(c(C)n3)O[C@@H](C)c3c(-c5cnn(C)c5)ccnc3N4)CC2)C1 (single isomer, unassigned) [Compound 534] |
| ~10 |  |  | 0.0631 | CC#CC(=O)N1CCC(N2CCC(c3cc4c(c(C)n3)O[C@@H](C)c3c(N5CCOCC5)ccnc3N4)CC2)C1 (single isomer, unassigned) [Compound 535] |
| > 10 |  |  | 0.195 | CC#CC(=O)N1CC(N2CCC(c3cc4c(c(C)n3)OCc3c(-c5cnn(C)c5)ccnc3N4)CC2)C1 [Compound 276] |
| 8.71 |  |  | 9.33 | CC(=O)N1CCC(N2CC(c3cc4c(c(C)n3)OCc3c(-c5cnn(C)c5)ccnc3N4)C2)CC1 [Compound 321] |
| > 10 |  |  | 0.191 | CC#CC(=O)N1CC(n2cc(-c3cc4c(c(C)n3)OCc3c(N5CCOCC5)ccnc3N4)cn2)C1 [Compound 346] |
| 6.92 |  |  | 0.372 | CC#CC(=O)N1CCC(n2cc(-c3cc(C)c4c(c3)Nc3nccc(N5CCOCC5)c3CO4)cn2)CC1 [Compound 381] |
| > 10 |  |  | > 10 | C=CC(=O)N1CC(N2CCC(c3cc4c(c(P(C)(C)=O)n3)OCc3c(N5CCOCC5)ccnc3N4)CC2)C1 [Compound 383] |
| > 10 |  |  | > 10 | Cc1nc(C2CCN(C3CN(C(=O)/C=C/C(=O)O)C3)CC2)cc2c1OCc1c(-c3cnn(C)c3)ccnc1N2 [Compound 432] |
| > 10 |  |  | > 10 | C=CC(=O)N1CCC2(CC1)CCN(c1cc3c(c(C)n1)OCc1c(-c4cnn(C)c4)ccnc1N3)CC2 [Compound 479] |
| > 10 |  |  | 0.324 | CC#CC(=O)N1CC(N2CCC(c3cc4c(c(C#N)n3)OC(C)c3c(N5CCOCC5)ccnc3N4)CC2)C1 (centres unmarked) [Compound 514] |
| > 10 |  |  | > 10 | C/C=C/C(=O)N1CC(N2CCC(c3cc4c(c(C)n3)OCc3c(-c5cnn(C)c5)ccnc3N4)CC2)C1 [Compound 537] |
|  | 6.49 | <5 |  | CC#CC(=O)N1CC(N2CCC(c3cc4c(c(C)n3)OCc3c(-c5cnn(C)c5)ccnc3N4)CC2)C1 [Compound 538] |

Continued, compound first:

| Structure (SMILES) | IC50 [1] [µM] | CDK7_A549 Wild-type CDK7 (pIC50) [2] | CDK7_A549 mutant hCDK7(pIC50) [1] | IC50 [2] [µM] |
| --- | --- | --- | --- | --- |
| CC#CC(=O)N1CCC(N2CC(c3cc4c(c(C#N)n3)O[C@H](C)c3c(N5CCOCC5)ccnc3N4)C2)CC1 (single isomer, unassigned) [Compound 544] | > 10 |  |  | 2.95 |
| CC#CC(=O)N1CCC(N2CC(c3cc4c(c(C#N)n3)O[C@@H](C)c3c(N5CCOCC5)ccnc3N4)C2)CC1 (single isomer, unassigned) [Compound 545] | 2.82 |  |  | 0.117 |
| C=CC(=O)N1CCC(Cc2ccc3c(c2)Nc2nccc(-c4cncc(C)c4)c2CO3)C1 (centres unmarked) [Compound 5] | > 10 |  |  | > 10 |
| C=CC(=O)N1CCC(Cc2ccc3c(c2)Nc2nccc(-c4cnccc4C)c2CO3)C1 (centres unmarked) [Compound 6] | > 10 |  |  | ~9.33 |
| C=CC(=O)N1CC(N2CCC(c3cc(C)c4c(c3)Nc3nccc(N5CCOCC5)c3CO4)CC2)C1 [Compound 20] | > 10 |  |  | 0.0589 |
| C=CC(=O)N1CC(N2CCC(c3cc(C)c4c(c3)Nc3nccc(N5CCOCC5)c3CO4)CC2)C1 [Compound 21] |  | 7.34 | <5 |  |
| C/C=C/C(=O)N1CC(N2CCC(c3ccc4c(c3)Nc3nccc(N5CCOCC5)c3CO4)CC2)C1 [Compound 106] | > 10 |  |  | ~10 |
| C=CC(=O)N1CCC(N2CC(c3ccc4c(c3C)Nc3nccc(C5CCOCC5)c3CO4)C2)CC1 [Compound 131] | > 10 |  |  | 6.61 |
| C#CCCN(C)C/C=C/C(=O)N1CC(N2CCC(c3cc(Cl)c4c(c3)Nc3nccc(N5CCOCC5)c3CO4)CC2)C1 [Compound 168] | > 10 |  |  | 0.0776 |
| C=CC(=O)N1CC(N2CCC(c3ccc4c(c3)Nc3nccc(C5CCOCC5)c3CO4)CC2)C1 [Compound 254] |  | 6.97 | <5 |  |
| C=CC(=O)N1CC(N2CCOC(c3ccc4c(c3)OCc3c(N5CCOCC5)ccnc3N4)C2)C1 (centres unmarked) [Compound 266] | > 10 |  |  | ~10.2 |
| C=CC(=O)N1CC(c2nc(C)c(-c3cc4c(c(C)n3)OCc3c(N5CCOCC5)ccnc3N4)c(C)n2)C1 [Compound 280] | > 10 |  |  | 0.126 |
| C=CC(=O)N1CCC(N2CC(c3cc4c(cn3)OC(C)(C)c3c(-c5cnn(C)c5)ccnc3N4)C2)CC1 [Compound 320] | > 10 |  |  | > 10 |
| C=CC(=O)N1CCC(n2cc(-c3cc4c(c(C)n3)OCc3c(N5CCOCC5)ccnc3N4)cn2)CC1 [Compound 390] | 8.71 |  |  | 0.214 |
| C=CC(=O)N1CCC(Oc2cc(-c3cc4c(c(C)n3)OCc3c(N5CCOCC5)ccnc3N4)ccn2)CC1 [Compound 407] | 7.76 |  |  | 1.91 |
| C=CC(=O)N1CCC(n2ccc(-c3ccc4c(c3)OCc3c(N5CCOCC5)ccnc3N4)cc2=O)CC1 [Compound 408] | > 10 |  |  | > 10 |
| CC#CC(=O)N1CCC(Oc2cc(-c3cc4c(c(C)n3)OCc3c(N5CCOCC5)ccnc3N4)ccn2)CC1 [Compound 409] | 7.08 |  |  | 1.45 |
| CC#CC(=O)N1CCC(n2ccc(-c3ccc4c(c3)OCc3c(N5CCOCC5)ccnc3N4)cc2=O)CC1 [Compound 412] | > 10 |  |  | 9.77 |
| CC#CC(=O)N1CCC(C2CN(c3cc4c(c(C)n3)OCc3c(N5CCOCC5)ccnc3N4)C2)CC1 [Compound 451] | > 10 |  |  | 0.302 |
| CC#CC(=O)N1CCC(N2CC(c3cc4c(c(C#N)n3)OC(C)c3c(N5CCOCC5)ccnc3N4)C2)CC1 (centres unmarked) [Compound 511] | 5.62 |  |  | 0.115 |

Reference: patent publication US20240254138A1, “TRICYCLIC PYRIMIDINES AS CYCLIN-DEPENDENT KINASE 7 (CDK7) INHIBITORS” (JANSSEN PHARMACEUTICA NV, priority 2021, published 2024)
